The compounds below were run on Wnt stimulated TCF transcriptional activity, HEK293-TS 112 TCF reporter cell line (assay: Tankyrase 1 Assay (Example 119): Wnt3A-stimulated TOPbrite TCF luciferase reporter). Conditions: Compounds I-59 to I-144, procedure in Example 119 (0.5 ug/mL Wnt3A, 16 hours); read-out: TNKS1 (IC50).
Assay type: cell-based
Experimental: Inhibition of the Wnt stimulated TCF transcriptional activity by tankyrase inhibitors was determined utilizing a HEK293-TS 112 TCF reporter cell line. A Wnt-responsive luciferase reporter named TOPbrite was constructed by cloning the enhancer element of Super8xTOPFlash containing eight TCF/LEF binding sites into the pGL4.28 vector (Promega) upstream of the minimal promoter element, and selecting for hygromycin B resistance (50 μg/ml). Cells were seeded into 384-well plates in the presence of 0.5 ug/mL of Wnt3A at a density of 20,000 cells per well in 25 ul of F:12 DMEM media supplemented with 10% FBS and 2 mM Glutamax. Cells seeded without the addition of Wnt3A were used as background signal. Compounds of various concentrations were added to cells and incubated at 37 degrees with 5% CO2 for 16 hours. The assay was terminated with the addition of Promega Dual Glo kit per manufacturer's instructions. A ratio of TOPbrite Firefly Luciferase and SV40 Renillla Luciferase was calculated and the background from the neutral wells was subtracted yielding the final normalized measurement of TCF transcriptional activity. Compound IC50s were determined by four-parameter curve fitting using GeneData software.

Compound | IC50 [nM]
Cc1noc(C2(C)CCN(c3nc4c(cnn4C)c(=O)[nH]3)CC2)n1 [Compound I-91, 1-methyl-6-[4-methyl-4-(3-methyl-1 2 4-oxadiazol-5-yl)-1-piperidyl]-5H-pyrazolo[3 4-d]pyrimidin-4-one] | 24.1
Cn1ncc2c(=O)[nH]c(N3CCC(C)(c4cc[nH]n4)CC3)nc21 [Compound I-82, 1-methyl-6-[4-methyl-4-(1H-pyrazol-3-yl)-1-piperidyl]-5H-pyrazolo[3 4-d]pyrimidin-4-one] | 15.1
COCCOc1cc(F)c(C2(C#N)CCN(c3nc4c(cnn4C)c(=O)[nH]3)CC2)c(F)c1 [Compound I-86, 4-[2 6-difluoro-4-(2-methoxyethoxy)phenyl]-1-(1-methyl-4-oxo-5H-pyrazolo[3 4-d]pyrimidin-6-yl)piperidine-4-carbonitrile] | 18.5
Cn1nccc1C1(C)CCN(c2nc3c(cnn3C)c(=O)[nH]2)CC1 [Compound I-96, 1-methyl-6-[4-methyl-4-(2-methylpyrazol-3-yl)-1-piperidyl)-5H-pyrazolo[3 4-d]pyrimidin-4-one] | 28.4
Cn1ncc2c(=O)[nH]c(N3CCN(c4c(F)cc(OC5CCOCC5)cc4F)CC3)nc21 [Compound I-76, 6-[4-(2 6-difluoro-4-tetrahydropyran-4-yloxy-phenyl)piperazin-1-yl]-1-methyl-5H-pyrazolo[3 4-d]pyrimidin-4-one] | 11.1
Cn1ncc2c(=O)[nH]c(N3CCC(S(C)(=O)=O)CC3)nc21 [Compound I-141, 1-methyl-6-(4-methylsulfonyl-1-piperidyl)-5H-pyrazolo[3 4-d]pyrimidin-4-one] | 652
COCCOc1cc(F)c(N2CCN(c3nc4[nH]ncc4c(=O)[nH]3)CC2)c(F)c1 [Compound I-77, 6-[4-[2 6-difluoro-4-(2-methoxyethoxy)phenyl]piperazin-1-yl]-1 5-dihydropyrazolo[3 4-d]pyrimidin-4-one] | 11.8
Cn1ncc2c(=O)[nH]c(N3CCC(c4n[nH]c5ncccc45)CC3)nc21 [Compound I-97, 1-methyl-6-[4-(1H-pyrazolo[3 4-b]pyridin-3-yl)-1-piperidyl]-5H-pyrazolo[3 4-d]pyrimidin-4-one] | 31.9
CCS(=O)(=O)c1ccc(-c2nc3c(cnn3C)c(=O)[nH]2)cc1 [Compound I-107, 6-(4-ethylsulfonylphenyl)-1-methyl-5H-pyrazolo[3 4-d]pyrimidin-4-one] | 68.1
Cn1ncc2c(=O)[nH]c(N3CCC(Cc4ccccn4)CC3)nc21 [Compound I-117, 1-methyl-6-[4-(2-pyridylmethyl)-1-piperidyl]-5H-pyrazolo[3 4-d]pyrimidin-4-one] | 112
Cn1ncc2c(=O)[nH]c(N3CCN(C4COC4)CC3)nc21 [Compound I-144, 1-methyl-6-[4-(oxetan-3-yl)piperazin-1-yl]-5H-pyrazolo[3 4-d]pyrimidin-4-one] | 830
COCCOc1cc(F)c(N2CCN(c3nc4c(cnn4CCCO)c(=O)[nH]3)CC2)c(F)c1 [Compound I-95, 6-[4-[2 6-difluoro-4-(2-methoxyethoxy)phenyl]piperazin-1-yl]-1-(3-hydroxypropyl)-5H-pyrazolo[3 4-d]pyrimidin-4-one] | 27
Cn1ncc2c(=O)[nH]c(N3CCN(c4c(F)cc(OCCO)cc4F)CC3)nc21 [Compound I-78, 6-[4-[2 6-difluoro-4-(2-hydroxyethoxy)phenyl]piperazin-1-yl]-1-methyl-5H-pyrazolo[3 4-d]pyrimidin-4-one] | 12
Cn1ncc2c(=O)[nH]c(-c3ccc(S(=O)(=O)C4CCCCC4)cc3)nc21 [Compound I-125, 6-(4-cyclohexylsulfonylphenyl)-1-methyl-5H-pyrazolo[3 4-d]pyrimidin-4-one] | 178
Cn1ncc2c(=O)[nH]c(N3CCN(c4c(F)cc(CC(O)CO)cc4F)CC3)nc21 (stereo not drawn) [Compound I-66, 6-[4-[4-(2 3-dihydroxypropyl)-2 6-difluoro-phenyl]piperazin-1-yl]-1-methyl-5H-pyrazolo[3 4-d]pyrimidin-4-one] | 6.6

Reference: patent publication US20130345215A1, “PYRAZOLOPYRIMIDONE AND PYRAZOLOPYRIDONE INHIBITORS OF TANKYRASE” (Genentech, Inc., priority 2012, published 2013)
